Key:
Assay type in all cases: in vivo
corn (Zea mays L.) [1] = test: Test Example 1, foliar treatment in upland pots; details: 20th to 22nd day after application, visual, read-out: Growth inhibition rate (%) Corn
Excerpt: (§1) Upland field soil was put into a 1/170,000 hectare pot, and seeds of various plants were sown. When the respective plants reached predetermined leaf stage ((1) barnyardgrass (Echinochloa crus-galli L.): 1.2 to 3.0 leaf stage, (2) crabgrass (Digitaria sanguinalis L.): 1.0 to 3.0 leaf stage, (3) green foxtail (Setaria viridis L.): 1.5 to 3.0 leaf stage, (4) redroot pigweed (Amaranthus retroflexus L.): cotyledon stage to 1.5 leaf stage, (5) prickly sida (Sida spinosa L.): cotyledon stage to 2.0 leaf stage, (6) velvetleaf (Abutilon theophrasti MEDIC.): cotyledon stage to 1.3 leaf stage, (7) rice (Oryza sativa L.): 1.2 to 2.5 leaf stage, (8) corn (Zea mays L.): 2.0 to 3.3 leaf stage, (9) soybean (Glycine max Merr.): primary leaf stage to 0.3 leaf stage) and wheat (Triticum spp.): 2.0 to 3.0 leaf stage, wettable powders or emulsifiable concentrates of the compounds of the present invention prepared in accordance with a conventional preparation method, were weighed so that the active ingredients became the prescribed amounts, and diluted with water in an amount corresponding to 500 liter per 1 hectare (containing 0.1 vol % of an agricultural spreader (“KUSARINOH”, manufactured by NIHON NOHYAKU CO., LTD.)). The spray solutions thus prepared were applied for foliar treatment by a small sprayer.
(§2) On the 20th to 22nd day after application, the state of growth of the respective plants was visually observed, and the herbicidal effect was evaluated by a growth inhibition rate (%) of 0 (equivalent to the non-treated area) to 100% (complete kill).

[2] = tested on: green foxtail (Setaria viridis L.); test: Test Example 1, foliar treatment in upland pots; details: 20th to 22nd day after application, visual, read-out: Growth inhibition rate (%) Green foxtail
Excerpt: as §1, §2

[3] = tested on: redroot pigweed (Amaranthus retroflexus L.); test: Test Example 1, foliar treatment in upland pots; details: 20th to 22nd day after application, visual, read-out: Growth inhibition rate (%) Redroot pigweed
Excerpt: as §1, §2

rice (Oryza sativa L.) [4] = test: Test Example 1, foliar treatment in upland pots; details: 20th to 22nd day after application, visual, read-out: Growth inhibition rate (%) Rice
Excerpt: as §1, §2

[5] = tested on: barnyardgrass (Echinochloa crus-galli L.); test: Test Example 2, soil application on the day after sowing; details: 21st to 22nd day after application, visual, read-out: Growth inhibition rate (%) Barnyardgrass
Excerpt: (§3) Upland field soil was put into a 1/170,000 hectare pot, and seeds of various plants (barnyardgrass (Echinochloa crus-galli L.), crabgrass (Digitaria sanquinalis L.), green foxtail (Setaria viridis L.), redroot pigweed (Amaranthus retroflexus L.), prickly sida (Sida spinosa L.), velvetleaf (Abutilon theophrasti MEDIC.), rice (Oryza sativa L.), corn (Zea mays L.), soybean (Glycine max Merr.)) and wheat (Triticum spp.) were sown. On the day after sowing, wettable powders or emulsifiable concentrates of the compounds of the present invention prepared in accordance with a conventional preparation method, were weighed so that the active ingredients became the prescribed amounts, and diluted with water in an amount corresponding to 500 liter per 1 hectare, followed by soil application with a small sprayer.
(§4) On the 21st to 22nd day after the application, the state of growth of the respective plants was visually observed, and the herbicidal effect was evaluated by a growth inhibition rate (%) of from 0 (equivalent to the non-treated area) to 100% (complete kill).

corn (Zea mays L.) [6] = test: as above; details: 21st to 22nd day after application, visual, read-out: Growth inhibition rate (%) Corn
Excerpt: as §3, §4

[7] = tested on: crabgrass (Digitaria sanquinalis L.); test: as above; details: 21st to 22nd day after application, visual, read-out: Growth inhibition rate (%) Crabgrass
Excerpt: as §3, §4

[8] = tested on: green foxtail (Setaria viridis L.); test: as above; details: 21st to 22nd day after application, visual, read-out: Growth inhibition rate (%) Green foxtail
Excerpt: as §3, §4

[9] = tested on: prickly sida (Sida spinosa L.); test: as above; details: 21st to 22nd day after application, visual, read-out: Growth inhibition rate (%) Prickly sida
Excerpt: as §3, §4

[10] = tested on: redroot pigweed (Amaranthus retroflexus L.); test: as above; details: 21st to 22nd day after application, visual, read-out: Growth inhibition rate (%) Redroot pigweed
Excerpt: as §3, §4

rice (Oryza sativa L.) [11] = test: as above; details: 21st to 22nd day after application, visual, read-out: Growth inhibition rate (%) Rice
Excerpt: as §3, §4

[12] = tested on: soybean (Glycine max Merr.); test: as above; details: 21st to 22nd day after application, visual, read-out: Growth inhibition rate (%) Soybean
Excerpt: as §3, §4

[13] = tested on: velvetleaf (Abutilon theophrasti MEDIC.); test: as above; details: 21st to 22nd day after application, visual, read-out: Growth inhibition rate (%) Velvetleaf
Excerpt: as §3, §4

wheat (Triticum spp.) = test: as above; details: 21st to 22nd day after application, visual, read-out: Growth inhibition rate (%) Wheat
Excerpt: as §3, §4

[14] = tested on: rice (Oryza sativa L.) (var.: Nihonbare); test: Test Example 3, paddy field pot, transplanted rice; details: applied 4th day after transplantation, 20th to 23rd day after application, read-out: Growth inhibition rate (%) Rice
Excerpt: Paddy field soil was put into a 1/1,000,000 hectare pot, and seeds of barnyardgrass (Echinochloa oryzicola vasing.) and Japanese bulrush (Scirpus juncoides) were sown and lightly covered with soil. Then, pot was left to stand in a greenhouse in a state irrigated to a water depth of from 0.5 to 1 cm, and next day or two days later, tubers of Japanese ribbon waparo (Sagittaria pygmaea) were planted. Then, the irrigated water depth was maintained to be from 3 to 4 cm, and when barnyardgrass and Japanese bulrush reached 0.5 leaf stage, and Japanese ribbon waparo reached primary leaf stage, a water diluted solution of a wettable powder or an emulsifiable concentrate of the compound of the present invention prepared in accordance with a conventional preparation method, was uniformly dropwise applied by a pipette so that the amount of active ingredients would be a prescribed amount. Further, paddy field soil was put into a 1/1,000,000 pot, followed by soil puddling to an irrigated water depth of from 3 to 4 cm. Next day, rice (Oryza sativa L.) (var.: Nihonbare) of two leaf stage was transplanted in a transplantation depth of 3 cm. On the 4th day after transplantation, the compound of the present invention was applied in the same manner as described above.
On the 13th to 17th day after application, the state of growth of barnyardgrass, Japanese bulrush and Japanese ribbon waparo was visually observed, and on the 20th to 23rd day after application, the state of growth of rice was visually observed, and the herbicidal effect was evaluated by a growth inhibition rate (%) of 0 (equivalent to the non-treated area) to 100% (complete kill).

| SMILES | inhibition at 7 g/ha (corn (Zea mays L.) [1]) [%] | inhibition at 7 g/ha [2] [%] | inhibition at 7 g/ha [3] [%] | inhibition at 7 g/ha (rice (Oryza sativa L.) [4]) [%] | inhibition at 250 g/ha [5] [%] | inhibition at 250 g/ha (corn (Zea mays L.) [6]) [%] | inhibition at 250 g/ha [7] [%] | inhibition at 250 g/ha [8] [%] | inhibition at 250 g/ha [9] [%] | inhibition at 250 g/ha [10] [%] | inhibition at 250 g/ha (rice (Oryza sativa L.) [11]) [%] | inhibition at 250 g/ha [12] [%] | inhibition at 250 g/ha [13] [%] | inhibition at 250 g/ha (wheat (Triticum spp.)) [%] | inhibition at 63 g/ha [14] [%] |
| --- | --- | --- | --- | --- | --- | --- | --- | --- | --- | --- | --- | --- | --- | --- | --- |
| COCCOc1c(S(C)(=O)=O)ccc(C(=O)c2cnn(C(C)C)c2OC(C)OC(=O)OC)c1C (stereo not drawn) [Compound No. 4-1, 1-(1-Isopropyl-4-(3-(2-methoxyethoxy)-2-methyl-4-(methylsulfonyl)benzoyl)-1H-pyrazol-5-yloxy)ethyl methyl carbonate] | 0 | 95 | 85 | 80 | 100 | 0 | 100 | 100 | 95 | 100 | 98 | 0 | 100 | 10 | 40 |
| CCn1ncc(C(=O)c2ccc(S(C)(=O)=O)c(OCCOC)c2C)c1OC(C)OC(=O)OC (stereo not drawn) [Compound No. 2-1, 1-(1-Ethyl-4-(3-(2-methoxyethoxy)-2-methyl-4-(methylsulfonyl)benzoyl)-1H-pyrazol-5-yloxy)ethyl methyl carbonate] | 0 | 100 | 90 | 70 | 95 | 0 | 100 | 100 | 90 | 100 | 98 | 0 | 100 | 0 | 20 |
| COCCOc1c(S(C)(=O)=O)ccc(C(=O)c2cnn(C(C)C)c2O)c1C [Compound No. 8-1, (5-Hydroxy-1-isopropyl-1H-pyrazol-4-yl)(3-(2-methoxyethoxy)-2-methyl-4-(methylsulfonyl)phenyl)ketone] | 0 | 90 | 90 | 10 | 100 | 0 | 100 | 100 | 40 | 100 | 80 | 0 | 100 | 0 | 60 |
| CCn1nc(C)c(C(=O)c2ccc(S(C)(=O)=O)c(OCCOC)c2C)c1O [Compound No. 6-1, (1-Ethyl-5-hydroxy-3-methyl-1H-pyrazol-4-yl)(3-(2-methoxyethoxy)-2-methyl-4-(methylsulfonyl)phenyl)ketone] | 0 | 60 | 60 | 20 | 100 | 0 | 100 | 98 | 80 | 100 | 100 | 60 | 80 | 20 | 40 |
| CCOC(=O)OC(C)Oc1c(C(=O)c2ccc(S(C)(=O)=O)c(OCCOC(C)C)c2C)cnn1C (stereo not drawn) [Compound No. 1-5, Ethyl 1-(4-(3-(2-isopropoxyethoxy)-2-methyl-4-(methylsulfonyl)benzoyl)-1-methyl-1H-pyrazol-5-yloxy)ethyl carbonate] | 10 | 80 | 80 | 20 | 100 | 10 | 95 | 100 | 90 | 100 | 80 | 10 | 100 | 0 | 30 |
| CCCn1ncc(C(=O)c2ccc(S(C)(=O)=O)c(OCCOC)c2C)c1OC(C)OC(=O)OCC (stereo not drawn) [Compound No. 3-1, Ethyl 1-(1-n-propyl-4-(3-(2-methoxyethoxy)-2-methyl-4-(methylsulfonyl)benzoyl)-1H-pyrazol-5-yloxy)ethyl carbonate] | 0 | 30 | 80 | 0 | 60 | 0 | 80 | 60 | 80 | 40 | 20 | 0 | 80 | 10 | 30 |
| CCCn1ncc(C(=O)c2ccc(S(C)(=O)=O)c(OCCOC)c2C)c1O [Compound No. 7-1, (5-Hydroxy-1-n-propyl-1H-pyrazol-4-yl)(3-(2-methoxyethoxy)-2-methyl-4-(methylsulfonyl)phenyl)ketone] | 0 | 70 | 70 | 10 | 98 | 0 | 100 | 90 | 80 | 100 | 98 | 20 | 95 | 40 | 20 |

Source: patent publication US8466089B2, “Pyrazole compounds, process for their production and herbicides containing them” (Ishihara Sangyo Kaisha, Ltd., priority 2008, dated 2013)
